Experimental findings from PMC6212553, “Baicalein Enhances the Oral Bioavailability and Hepatoprotective Effects of Silybin Through the Inhibition of Efflux Transporters BCRP and MRP2” (Frontiers in Pharmacology, 2018) are described below.

As a reminder, the Tmax is the time from dosing to the highest level.

SMILES strings stand for the structures. Read-outs that look alike come from different tables or passages of the source.

Series [1] in a line: Bidirectional transport of silybin across Caco-2 cell monolayers. It counts as in vitro ADME, Human. As to conditions: human. On the procedure: Human colon epithelial cell line (Caco-2) was purchased from American Type Culture Collection (Manassas, VA, United States) and frozen at -80°C. Wild type MDCK II, MDR1-MDCK II, BCRP-MDCK II, and MRP2-MDCK II cells were kindly supplied by the Netherlands Cancer Institute (Amsterdam, Netherlands). Transport study was carried out with Caco-2 cells, and MDCK II cells were transfected using a previously established method with slight modifications ([Yuan et al., 2017]). The Caco-2 cells were cultured at 37°C/5% CO2 in Dulbecco's modified Eagle's medium (DMEM) supplemented with 10% fetal bovine serum, 1% nonessential amino acids, and 1% penicillin-streptomycin. The Caco-2 cells were seeded onto polyester filter membranes in a 12-well Transwell® plate (Corning Costar Co., NY, United States) with 0.6 × 10^5 cells/cm^2. The monolayer cells were used for transport assays between 21 and 23 days. The MDCKII cells were seeded on transwell plates with a density of 2.0 × 10^5 cells/cm^2 and grown for 4-5 days to form a confluent monolayer. Bidirectional transport assays for Caco-2 and MDCK II cells were performed by adding silybin (10 μM) in assay buffer into either the apical (AP; A-to-B) or basolateral (BL; […] For inhibition studies, Caco-2 or MDCK II cell monolayers in both apical and basolateral chambers were preincubated with the inhibitor for 30 min. The fluorescence intensity of the sample collected from the AP or BL side was immediately detected in a 96-well black plate by the Microplate UV/VIS spectrophotometer (TECAN Infinite […], Männedorf, Switzerland). For liquid chromatography tandem-mass spectrometry (LC-MS/MS) analysis, the sample (100 μl) was mixed with methanol (50 μl) containing internal standard (25 ng/ml) and was stored at -80°C. The formula for calculating apparent permeability coefficient (Papp) values is as follows: (1) […] where dQ/dt (mM/s) represents the rate of permeation of the drug across the cells, C0 (mM) refers to the concentration in the donor compartment at time zero calculated from dosing solution, and A (cm^2) refers to the area of the cell monolayer. Papp (B-A) is the Papp value measured in the B to A direction, and Papp (A-B) is the Papp value measured in the A to B direction. The efflux ratio is given as ER = Papp (B to A)/Papp (A to B).

Series [2] is described as follows: Pharmacokinetic study in rats after oral administration. The series is classed as in vivo, SD rats. As to conditions: silybin 50 mg/kg oral; for CL/F / MRT last / Tmax / half-life: male, SD, rat, plasma, po, 50 mg/kg; for CL/F: read-out: CLz/F, free silybin (converted); for MRT last: read-out: MRT(0-t), free silybin; for Tmax: read-out: Tmax, free silybin; for half-life: read-out: t1/2z, free silybin (converted). On the procedure:
A previously established liquid chromatography-mass spectrometry (LC-MS) method with slight modifications was used to determine the concentrations of all glucuronide and sulfate conjugates of silybin and free silybin in bio-samples (plasma, cell and media) ([Wen et al., 2008]). In brief, a 10 μl aliquot of each sample was enzymatically hydrolyzed with […] (8000 U/ml) and sulfatase (80 U/ml), and the reaction was terminated by adding 40 μl ice-cold acetonitrile containing glacial acetic acid (1%) and internal standard NG (25 ng/ml). After centrifugation at 13,500 rpm for 15 min at 4°C, the supernatant was dried in ice bath by blowing nitrogen. Later, the residues were reconstituted with 60 μl of 30% methanol in water containing 1% ascorbic acid, and an aliquot of 10 μl of final solution after centrifugation was analyzed by LC-MS/MS. In parallel, a 10 μl aliquot of each sample without enzymes was treated with 40 μl ice-cold acetonitrile containing glacial acetic acid (1%) and NG (25 ng/ml) to determine the concentration of free silybin. Therefore, the concentration of total glucuronides and sulfates was estimated based on the difference between the amount of total silybin (after incubation with both glucuronidase and sulfatase) and free silybin (without enzymatic incubation). The method was validated in terms of specificity, recovery, linearity, sensitivity (LLOQ), matrix effect, accuracy, precision, and stability based on the USA Food and Drug Administration (FDA) bioanalytical method validation guidance. The quantitative linear range for silybin A and B was 5 to 12500 ng/ml.
The analysis for the determination of the concentration of silybin and its glucuronides and sulfates was performed on an Agilent HP 1100 LC-MS system (Agilent, CA, United States) with Waters ACQUITY UPLC® BEH C18 Column (1.7 μm, 2.1 × 50 mm, Waters Corp., Ireland) protected by a C18 Security Guard cartridge (4 × 2.0 mm i.d., Phenomenex, Torrance, CA, United States). Silybin A and B were well separated using optimized gradient elution with 0.1% formic acid in water (mobile phase A) and methanol (mobile phase B) at a flow rate of 0.4 ml/min within 10 min at room temperature (22°C). The gradient elution was performed as follows (time: mobile phase B percentage): 0 min: 25%, 6 min: 40%, 6.5 min: 25%.
Mass spectrometry parameters: capillary voltage, -4000 V; drying gas, 9 L/min; drying gas temperature, 325°C; nebulizer pressure, 40 psi; fragment voltage, 35 V; dwell time, 200 ms; scan mode, selective ion monitoring (SIM) with [M-H]^- for silybin (m/z 481), mono-glucuronide (m/z 657), and NG (m/z 271). The LC-MS data were collected by Agilent ChemStation Software.
Male SD rats, weighting 200–250 g, were purchased from the Guangdong Medical Laboratory Animal Center. They were housed as six rats per cage and in a temperature- (21°C) and humidity-controlled (70%) room with a 12 h light/dark cycle with standard diet and water. All animals were allowed to acclimate to the housing conditions for 7 days prior to experimentation. Experimental procedures were approved by the Committee of Guangdong Provincial Hospital of Traditional Chinese Medicine (No # 2017044).
The SD rats were randomly divided into three groups with six rats per group and were given oral administration as follows: (1) silybin at a dosage of 50 mg/kg bodyweight, (2) silybin and baicalein at a dosage of 50 mg/kg each, and (3) baicalein at a dosage of 50 mg/kg body weight. Before the experiment, rats were pre-fasted for 24 h with water ad libitum and were maintained at a temperature of 21°C with 70% relative humidity and a 12 h light/dark cycle. Blood samples were collected via the tail vein (about 0.1 ml) at time intervals of 0, 15, 30, 45, 60, 90, 120, 240, 360, 480, and 720 min after oral administration with a temporary cannula ([Parasuraman et al., 2010]), and the samples were transferred into heparinized micro-centrifuge tubes. […]

Setting [3] is: Caco-2, silybin 10 μM, co-treatment with baicalein 5 μM, read-out: efflux ratio.
[4] abbreviates: Caco-2 model, silybin alone, read-out: mean efflux ratio.
[5] abbreviates: with baicalein 50 mg/kg, listed as SBA.
The mark [6] stands for this setting: without baicalein, listed as SBA.
[7] abbreviates: with baicalein 50 mg/kg, listed as SBB.

As to `COc1cc([C@H]2Oc3cc([C@H]4Oc5cc(O)cc(O)c5C(=O)[C@@H]4O)ccc3O[C@@H]2CO)ccc1O` [silybin A], the efflux ratio at 180 min, 10 μM in series [1] (setting [3]) is 2.38 ± 0.27. Further, the efflux ratio at 180 min, 10 μM in series [1] (setting [4]) stood at 5.62. Moreover, in series [2] (with baicalein 50 mg/kg), the CL/F is 233 mL/min/kg, the MRT last was found to be 1.9 ± 0.2 h, the Tmax came to 1.5 h and the half-life is 1.6 ± 2.3 h. In series [2] (with baicalein 50 mg/kg), the “AUC(0-t), free silybin” value was determined as 3534 ± 344 ng ⋅ h/ml; the “AUC(0-∞), free silybin” value is 3599 ± 410 ng ⋅ h/ml; the “Cmax, free silybin” value is 1526 ± 126 ng/mL. Besides, in series [2] (without baicalein), the CL/F was 417 mL/min/kg, the MRT last amounted to 4.1 ± 0.9 h, the time of peak concentration (Tmax) was found to be 1.5 h and the half-life is 1.5 ± 0.2 h. For the same compound, the “AUC(0-∞), free silybin” value in series [2] (without baicalein) is listed as 2305 ± 1147 ng ⋅ h/ml. For the same compound, in series [2] (setting [5]), the “AUC(0-t), free silybin” value is recorded as 3534 ± 344 ng ⋅ h/ml and the “Cmax, free silybin” value turned out to be 1526 ± 126 ng/mL. For the same compound, in series [2] (setting [6]), the “AUC(0-t), free silybin” value is on record as 1292 ± 342 ng ⋅ h/ml and the “Cmax, free silybin” value was found to be 507.7 ± 115 ng/mL.
Regarding `COc1cc([C@@H]2Oc3cc([C@H]4Oc5cc(O)cc(O)c5C(=O)[C@@H]4O)ccc3O[C@H]2CO)ccc1O` [silybin B], the efflux ratio at 180 min, 10 μM in series [1] (setting [3]) stood at 2.33 ± 0.09. In addition, the efflux ratio at 180 min, 10 μM in series [1] (setting [4]) turned out to be 5.13. Moreover, in series [2] (with baicalein 50 mg/kg), the CL/F is 298 mL/min/kg, the MRT last came out at 2.1 ± 0.3 h, the Tmax was determined as 1.29 ± 0.51 h and the half-life is 1.34 ± 0.53 h. In addition, in series [2] (with baicalein 50 mg/kg), the “AUC(0-∞), free silybin” value amounted to 1812 ± 223 ng ⋅ h/ml. In addition, in series [2] (without baicalein), the CL/F was 450 mL/min/kg, the MRT last was 4.21 ± 0.98 h, the Tmax stood at 1.5 h and the half-life is 1.7 ± 0.3 h. Moreover, in series [2] (without baicalein), the “AUC(0-t), free silybin” value was 1195 ± 302 ng ⋅ h/ml; the “AUC(0-∞), free silybin” value was 2087 ± 932 ng ⋅ h/ml; the “Cmax, free silybin” value is 413 ± 69 ng/mL. In series [2] (setting [7]), the “AUC(0-t), free silybin” value was 1808 ± 226 ng ⋅ h/ml and the “Cmax, free silybin” value worked out at 915.2 ± 151 ng/mL. The “Cmax, free silybin” value in series [2] (without baicalein, listed as SBB) came out at 412.7 ± 69.3 ng/mL.
